The source made the active and inactive calls.
Key:
[1] = biological target: Cytochrome P450 2C9 (Homo sapiens, UniProt P11712)
[2] = biological target: Cytochrome P450 3A4 (Homo sapiens, UniProt P08684);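 note: CYP3A4 tested as one member of a cytochrome P450 panel screen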
[3] = biological target: Cytochrome P450 2D6 (Homo sapiens, UniProt P10635);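 note: CYP2D6 member of a cytochrome P450 panel assay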
[4] = biological target: T1, Cytochrome P450 1A2 (Homo sapiens, UniProt P05177);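 note: PubChem cytochrome P450 panel assay, CYP1A2 panel member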
T1 sequence (P05177 whole entry): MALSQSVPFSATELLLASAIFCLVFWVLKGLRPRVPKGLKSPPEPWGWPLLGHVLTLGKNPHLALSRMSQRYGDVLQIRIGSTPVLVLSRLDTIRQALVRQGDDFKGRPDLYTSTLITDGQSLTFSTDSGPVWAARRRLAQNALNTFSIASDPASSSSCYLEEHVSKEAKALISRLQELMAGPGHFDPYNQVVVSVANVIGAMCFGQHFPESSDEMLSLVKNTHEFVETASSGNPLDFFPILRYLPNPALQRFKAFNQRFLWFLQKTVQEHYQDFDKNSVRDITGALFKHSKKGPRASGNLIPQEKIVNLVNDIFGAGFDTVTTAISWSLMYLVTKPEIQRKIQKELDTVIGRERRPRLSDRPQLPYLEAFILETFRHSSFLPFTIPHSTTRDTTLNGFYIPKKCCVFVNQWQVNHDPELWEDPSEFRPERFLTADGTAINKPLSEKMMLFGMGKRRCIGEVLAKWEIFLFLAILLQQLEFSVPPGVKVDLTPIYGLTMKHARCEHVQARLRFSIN

[5] = biological target: Cytochrome P450 2C19 (Homo sapiens, UniProt P33261); experiment: Cytochrome panel assay with activity outcomes. Panel member name: p450-cyp2c19 Compounds with AC50 equal or less than 10 uM are considered active; assay type: functional; conditions: read-out: AC50
[6] = biological target: Luciferin 4-monooxygenase (Photinus pyralis, UniProt P08659); experiment: firefly luciferase enzyme inhibitors, dose response, biochemical, luminescence (AID 1891)
Luciferin 4-monooxygenase, sequence (P08659 whole entry): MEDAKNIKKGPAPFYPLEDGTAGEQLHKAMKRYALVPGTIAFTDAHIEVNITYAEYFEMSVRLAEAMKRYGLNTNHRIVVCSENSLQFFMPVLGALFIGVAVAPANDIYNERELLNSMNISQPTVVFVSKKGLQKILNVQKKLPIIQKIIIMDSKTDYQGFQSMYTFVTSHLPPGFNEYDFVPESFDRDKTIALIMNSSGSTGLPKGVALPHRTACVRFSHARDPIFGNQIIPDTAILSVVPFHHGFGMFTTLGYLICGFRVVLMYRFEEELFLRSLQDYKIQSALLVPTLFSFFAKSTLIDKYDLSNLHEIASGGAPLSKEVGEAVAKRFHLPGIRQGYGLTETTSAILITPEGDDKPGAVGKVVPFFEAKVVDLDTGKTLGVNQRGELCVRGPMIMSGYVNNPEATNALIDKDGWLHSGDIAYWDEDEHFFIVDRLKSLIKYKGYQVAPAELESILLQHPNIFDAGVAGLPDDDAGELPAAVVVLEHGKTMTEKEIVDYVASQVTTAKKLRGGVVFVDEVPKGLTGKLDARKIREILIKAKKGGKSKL

[7] = biological target: Prothrombin (Homo sapiens, UniProt P00734); experiment: Thrombin 1536 HTS Dose Response Confirmation. [Related pubchem assays: 1046 (Thrombin 1536 HTS; hits were confirmed in this assay)]; assay type: functional
[8] = biological target: Disintegrin and metalloproteinase domain-containing protein 17 (Homo sapiens, UniProt P78536); experiment: exosite inhibitors of ADAM17, dose response, biochemical (AID 743260)
Disintegrin and metalloproteinase domain-containing protein 17, sequence (P78536 whole entry, the tested form may be a part): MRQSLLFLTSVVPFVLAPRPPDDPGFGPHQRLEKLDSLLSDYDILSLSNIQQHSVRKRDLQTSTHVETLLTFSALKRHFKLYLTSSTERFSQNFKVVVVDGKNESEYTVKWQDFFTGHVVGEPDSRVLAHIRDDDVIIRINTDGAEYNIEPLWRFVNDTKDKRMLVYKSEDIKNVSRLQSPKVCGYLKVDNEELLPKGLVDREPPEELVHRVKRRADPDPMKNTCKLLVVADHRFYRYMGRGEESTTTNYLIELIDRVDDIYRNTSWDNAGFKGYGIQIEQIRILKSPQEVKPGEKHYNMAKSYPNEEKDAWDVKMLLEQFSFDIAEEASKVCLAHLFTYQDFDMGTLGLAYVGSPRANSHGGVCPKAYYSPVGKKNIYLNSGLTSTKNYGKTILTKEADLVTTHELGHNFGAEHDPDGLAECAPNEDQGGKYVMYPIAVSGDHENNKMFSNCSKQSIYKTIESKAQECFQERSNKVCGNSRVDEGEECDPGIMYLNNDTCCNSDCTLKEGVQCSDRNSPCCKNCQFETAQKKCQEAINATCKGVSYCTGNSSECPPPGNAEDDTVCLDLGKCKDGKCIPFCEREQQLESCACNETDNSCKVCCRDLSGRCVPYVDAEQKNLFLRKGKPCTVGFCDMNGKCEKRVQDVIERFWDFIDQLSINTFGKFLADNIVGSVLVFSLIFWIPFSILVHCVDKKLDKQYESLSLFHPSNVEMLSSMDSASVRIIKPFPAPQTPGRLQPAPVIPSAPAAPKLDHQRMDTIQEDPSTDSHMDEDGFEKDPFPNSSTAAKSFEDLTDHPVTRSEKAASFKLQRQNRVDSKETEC

[9] = ADAM10 protease inhibitors, dose response, selectivity assay for ADAM17 exosite inhibitor project, biochemical, FRET peptide substrate, recombinant human ADAM10 (AID 743259);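 note: ADAM10 enzyme cleaving a FRET peptide substrate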
[10] = A cytotoxicity screen of small molecule inhibitors of the PhoP region in Salmonella typhi identified in the primary screen. [Related pubchem assays: 1850, 1864, 1985 ]; assay type: functional
[11] = HEp-2 cell cytotoxicity, dose response, cytotoxicity control for RSV inhibitor project, HTS (AID 2410); assay type: functional; conditions: human respiratory syncytial virus
[12] = biological target: Eukaryotic translation initiation factor 4E (Mus musculus, UniProt P63073); experiment: eIF4E–eIF4G protein interaction inhibitors, dose response, biochemical, TR-FRET (AID 855); assay type: functional;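 note: potency for disrupting eIF4E binding to eIF4GI seen as loss of FRET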
Eukaryotic translation initiation factor 4E, sequence (P63073 whole entry): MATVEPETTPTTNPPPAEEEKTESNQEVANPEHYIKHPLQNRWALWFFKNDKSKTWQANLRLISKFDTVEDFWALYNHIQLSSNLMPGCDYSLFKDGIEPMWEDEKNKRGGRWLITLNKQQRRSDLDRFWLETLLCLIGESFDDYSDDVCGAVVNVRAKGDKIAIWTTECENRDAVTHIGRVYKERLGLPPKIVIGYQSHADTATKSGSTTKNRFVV

[13] = biological target: T2, Ubiquitin-conjugating enzyme E2 N (Homo sapiens, UniProt P61088); assay type: functional;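 note: Dose-response confirmation in a TR-FRET assay detecting UBC13-driven polyubiquitin chain formation, inhibition measured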
T2 sequence (P61088 whole entry): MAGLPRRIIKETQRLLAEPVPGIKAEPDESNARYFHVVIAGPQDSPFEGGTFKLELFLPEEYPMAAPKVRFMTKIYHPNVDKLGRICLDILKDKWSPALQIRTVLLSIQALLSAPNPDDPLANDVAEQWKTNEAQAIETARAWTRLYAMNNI

[14] = Luminescence Cell-Based Dose Retest to Confirm Inhibitors of Cancer Stem Cells. [Related pubchem assays (depositor defined):AID2717, AID2721]; assay type: functional; conditions: Homo sapiens
[15] = HEK293T cytotoxicity, dose response, cytotoxicity control for miR-122 modulator project, cell-based, inhibitor set, cherry-pick, set 2 (AID 720697); assay type: functional
[16] = biological target: T3, Protein skinhead-1 (Caenorhabditis elegans, UniProt P34707); assay type: functional
T3 sequence (P34707 whole entry): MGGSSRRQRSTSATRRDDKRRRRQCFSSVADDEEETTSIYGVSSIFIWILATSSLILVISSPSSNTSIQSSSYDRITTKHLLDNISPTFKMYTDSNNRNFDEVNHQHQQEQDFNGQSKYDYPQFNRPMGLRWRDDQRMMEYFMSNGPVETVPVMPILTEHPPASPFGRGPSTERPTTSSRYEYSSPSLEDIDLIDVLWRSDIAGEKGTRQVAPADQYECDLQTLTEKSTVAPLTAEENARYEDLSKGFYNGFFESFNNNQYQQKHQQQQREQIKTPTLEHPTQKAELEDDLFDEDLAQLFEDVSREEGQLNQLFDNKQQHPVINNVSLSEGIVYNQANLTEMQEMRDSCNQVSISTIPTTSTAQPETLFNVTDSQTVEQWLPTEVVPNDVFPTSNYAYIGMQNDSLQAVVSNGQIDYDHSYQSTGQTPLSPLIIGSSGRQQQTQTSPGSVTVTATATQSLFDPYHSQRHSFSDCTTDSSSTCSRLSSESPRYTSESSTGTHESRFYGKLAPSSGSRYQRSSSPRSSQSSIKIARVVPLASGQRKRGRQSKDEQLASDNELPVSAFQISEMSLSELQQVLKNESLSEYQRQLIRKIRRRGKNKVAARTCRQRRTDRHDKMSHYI

[17] = cytotoxicity toward NIH3T3 fibroblasts, dose response, counter-screen, cell-based, ATP luminescence, mouse fibroblasts (AID 2010); assay type: functional;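 note: cells exposed to compound for about 90 hours before reading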
[18] = inhibitors of intracellular T. cruzi replication, confirmation, NIH3T3 host cells, beta-gal luminescence (AID 2044); assay type: functional, cell-based;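 note: intracellular parasites grown in NIH/3T3 mouse fibroblasts as host cells; luminescent beta-galactosidase reporter signal from transgenic T. cruzi replicating inside host cells; inhibitors lower the luminescence signal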
[19] = biological target: Estrogen receptor beta (Homo sapiens, UniProt Q92731); experiment: ERβ–SRC-3 coactivator interaction inhibitors, confirmation, orthogonal assay, biochemical, ELISA, streptavidin-HRP readout (AID 1060)
Estrogen receptor beta, sequence (Q92731 whole entry): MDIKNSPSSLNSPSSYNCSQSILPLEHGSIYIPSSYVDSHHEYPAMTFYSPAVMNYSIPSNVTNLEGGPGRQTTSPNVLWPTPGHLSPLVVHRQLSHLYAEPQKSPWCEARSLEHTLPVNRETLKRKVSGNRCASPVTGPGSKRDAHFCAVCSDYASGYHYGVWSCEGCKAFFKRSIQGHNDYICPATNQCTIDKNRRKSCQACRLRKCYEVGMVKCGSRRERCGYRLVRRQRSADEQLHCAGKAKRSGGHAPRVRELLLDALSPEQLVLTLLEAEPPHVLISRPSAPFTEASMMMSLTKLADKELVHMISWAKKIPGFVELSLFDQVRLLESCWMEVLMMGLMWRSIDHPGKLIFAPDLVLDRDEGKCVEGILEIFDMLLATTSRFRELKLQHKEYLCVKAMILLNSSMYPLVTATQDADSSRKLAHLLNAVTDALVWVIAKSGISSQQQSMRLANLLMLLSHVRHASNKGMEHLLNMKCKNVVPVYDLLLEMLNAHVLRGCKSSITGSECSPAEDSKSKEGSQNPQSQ

[20] = system: SN12K1; experiment: cells; assay type: functional; conditions: Homo sapiens
[21] = system: P388/ADR; experiment: cells; assay type: functional; conditions: Mus musculus
[22] = system: P388; experiment: cells; assay type: functional; conditions: Mus musculus
[23] = HepG2 cell cytotoxicity, dose response, cytotoxicity control, cherry-picked samples (AID 1159577); assay type: functional, cell-based
[24] = P. falciparum Dd2 growth inhibitors, dose response, SYBR Green, cherry-picked samples (AID 1159567); assay type: functional, cell-based
[25] = biological target: T4, Polyadenylate-binding protein 1 (Homo sapiens, UniProt P11940); experiment: PABP1 MLLE–PAM2 interaction inhibitors, dose response, miRNA deadenylation inhibitor project, biochemical, fluorescence polarization, Cy5-PAM2 peptide, secondary (AID 602260); assay type: functional; conditions: read-out: IC50_Mean
T4 sequence (P11940 whole entry): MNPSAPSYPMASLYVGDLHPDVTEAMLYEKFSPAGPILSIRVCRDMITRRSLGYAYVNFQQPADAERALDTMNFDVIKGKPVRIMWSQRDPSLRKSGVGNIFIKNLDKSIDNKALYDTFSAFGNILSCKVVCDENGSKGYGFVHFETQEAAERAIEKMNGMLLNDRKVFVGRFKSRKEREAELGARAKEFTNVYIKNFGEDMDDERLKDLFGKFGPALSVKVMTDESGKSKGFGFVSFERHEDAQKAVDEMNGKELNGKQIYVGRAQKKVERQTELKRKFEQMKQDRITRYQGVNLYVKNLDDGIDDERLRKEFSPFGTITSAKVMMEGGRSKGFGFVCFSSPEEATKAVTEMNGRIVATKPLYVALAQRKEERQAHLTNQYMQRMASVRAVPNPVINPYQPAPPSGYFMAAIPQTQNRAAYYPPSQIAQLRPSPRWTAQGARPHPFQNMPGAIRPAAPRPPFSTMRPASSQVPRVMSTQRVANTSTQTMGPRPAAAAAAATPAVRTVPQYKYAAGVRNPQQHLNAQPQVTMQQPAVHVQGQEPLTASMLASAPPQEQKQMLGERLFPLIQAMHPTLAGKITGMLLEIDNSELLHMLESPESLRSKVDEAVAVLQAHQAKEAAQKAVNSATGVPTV

[26] = biological target: DNA dC->dU-editing enzyme APOBEC-3G (Homo sapiens, UniProt Q9HC16); experiment: Dose Response confirmation of small molecule APOBEC3G DNA Deaminase Inhibitors via a fluorescence-based single-stranded DNA deaminase assay. [Related pubchem assays (depositor defined):AID493012, AID493028]; assay type: functional
DNA dC->dU-editing enzyme APOBEC-3G, sequence (Q9HC16 whole entry): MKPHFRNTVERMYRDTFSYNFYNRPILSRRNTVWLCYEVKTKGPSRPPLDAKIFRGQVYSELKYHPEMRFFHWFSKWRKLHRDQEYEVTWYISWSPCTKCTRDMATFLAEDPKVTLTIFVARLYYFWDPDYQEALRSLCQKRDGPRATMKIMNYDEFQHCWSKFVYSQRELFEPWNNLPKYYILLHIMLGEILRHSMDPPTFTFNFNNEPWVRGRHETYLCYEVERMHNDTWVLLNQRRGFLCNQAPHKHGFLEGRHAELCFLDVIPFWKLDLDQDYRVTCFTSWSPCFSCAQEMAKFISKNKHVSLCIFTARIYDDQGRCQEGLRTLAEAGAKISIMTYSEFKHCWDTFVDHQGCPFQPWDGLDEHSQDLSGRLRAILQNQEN

[27] = biological target: T4, Polyadenylate-binding protein 1; experiment: PABP1 MLLE–PAM2 binding inhibitor potency, dose response, biochemical, fluorescence polarization, FITC-PAM2 peptide (AID 602259); assay type: functional; conditions: read-out: IC50_Mean

Cytochrome P450 3A4, sequence (P08684 whole entry): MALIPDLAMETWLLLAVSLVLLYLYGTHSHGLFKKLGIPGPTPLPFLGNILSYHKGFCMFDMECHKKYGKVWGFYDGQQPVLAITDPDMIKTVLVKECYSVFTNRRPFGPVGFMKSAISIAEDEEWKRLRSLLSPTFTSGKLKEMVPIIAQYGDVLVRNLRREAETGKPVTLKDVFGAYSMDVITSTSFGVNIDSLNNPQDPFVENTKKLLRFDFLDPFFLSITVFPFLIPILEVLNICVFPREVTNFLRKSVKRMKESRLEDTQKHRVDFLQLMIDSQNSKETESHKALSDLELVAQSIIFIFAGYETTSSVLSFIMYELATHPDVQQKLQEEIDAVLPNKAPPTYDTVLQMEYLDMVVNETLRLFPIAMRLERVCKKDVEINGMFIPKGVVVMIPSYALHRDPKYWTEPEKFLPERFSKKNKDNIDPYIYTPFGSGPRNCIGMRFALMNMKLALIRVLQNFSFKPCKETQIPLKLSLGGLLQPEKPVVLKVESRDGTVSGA
Cytochrome P450 2D6, sequence (P10635 whole entry): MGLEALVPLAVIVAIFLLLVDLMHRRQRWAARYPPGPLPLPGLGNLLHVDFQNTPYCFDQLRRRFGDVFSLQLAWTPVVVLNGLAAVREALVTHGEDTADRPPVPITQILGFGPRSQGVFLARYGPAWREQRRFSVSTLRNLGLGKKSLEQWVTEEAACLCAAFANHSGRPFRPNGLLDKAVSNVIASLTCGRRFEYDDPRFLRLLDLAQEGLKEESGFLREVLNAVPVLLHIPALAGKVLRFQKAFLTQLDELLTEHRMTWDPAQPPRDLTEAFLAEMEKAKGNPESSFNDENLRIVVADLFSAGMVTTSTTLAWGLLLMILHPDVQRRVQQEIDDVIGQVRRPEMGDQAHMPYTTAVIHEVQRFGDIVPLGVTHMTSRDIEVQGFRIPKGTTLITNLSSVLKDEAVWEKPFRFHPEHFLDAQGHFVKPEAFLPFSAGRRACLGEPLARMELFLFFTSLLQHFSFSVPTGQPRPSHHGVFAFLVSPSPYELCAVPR
Cytochrome P450 2C9, sequence (P11712 whole entry): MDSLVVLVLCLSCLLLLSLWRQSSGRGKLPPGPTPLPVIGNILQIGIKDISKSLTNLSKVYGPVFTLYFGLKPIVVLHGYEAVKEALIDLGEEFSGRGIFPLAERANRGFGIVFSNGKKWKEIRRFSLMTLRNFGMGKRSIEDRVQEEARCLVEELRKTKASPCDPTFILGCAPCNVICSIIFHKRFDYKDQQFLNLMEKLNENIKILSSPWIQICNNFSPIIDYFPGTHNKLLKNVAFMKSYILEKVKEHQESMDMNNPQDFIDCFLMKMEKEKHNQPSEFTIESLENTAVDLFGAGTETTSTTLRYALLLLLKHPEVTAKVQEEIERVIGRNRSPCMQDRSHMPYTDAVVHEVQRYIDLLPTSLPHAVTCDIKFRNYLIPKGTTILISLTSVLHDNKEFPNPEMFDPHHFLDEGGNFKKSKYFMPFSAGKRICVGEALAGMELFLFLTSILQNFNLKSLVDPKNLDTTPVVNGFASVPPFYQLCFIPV

For `C[C@]12Cc3cn4c(nc3C=C1CC[C@H]1[C@@H]2CC[C@@]2(C)[C@H]1CC[C@@]2(O)C#N)nc1ccccc14`, the AC50 [1] was 10 µM (inconclusive), the AC50 [2] was “inconclusive” and the AC50 [3] was 25.1 µM (inconclusive). For the same compound, the AC50 [4] was 15.8 µM (inconclusive) and the AC50 [5] was 7.94 µM (inconclusive).

For `O=C(COC(=O)c1n[nH]c2ccccc12)Nc1cccc(S(=O)(=O)N2CCOCC2)c1`, the EC50 [6] was > 112 µM (not active) and the IC50 [7] was 1.11 µM (active).

For `O=C(Nc1cc(Cl)ccc1O)C1CC(c2c(F)cccc2Cl)=NO1` (stereo not given), the IC50 [8] was > 69.5 µM (inactive) and the IC50 [9] was > 69.5 µM (inactive).

With `CN(c1ccc(OCc2ccc([N+](=O)[O-])cc2)cc1)S(=O)(=O)c1ccccc1` the IC50 [8] was > 69.5 µM (inactive) and the IC50 [9] was > 69.5 µM (inactive).

With `Cc1c(CC(=O)N2CCC(C(N)=O)CC2)c(=O)oc2cc3c(cc12)CCC1(CCCCC1)O3` the EC50 [10] was > 50 µM (active).

In the case of `Clc1cccc(NCc2nnc(SCc3ccc(Cl)cc3Cl)o2)c1`, the CC50 [11] is reported as 19.1 µM (active), the IC50 [8] is reported as > 69.5 µM (inactive) and the IC50 [9] is reported as 25.4 µM (inactive).

In the case of `O=C(CCc1ccccc1)n1nc(-c2ccco2)nc1SCc1ccccc1`, the IC50 [7] is reported as 0.133 µM (active).

In the case of `O=C(O)C1CC(c2ccccc2F)=NO1` (stereo not given), the IC50 [12] is reported as > 64 µM (inactive).

With `CCN1CCN(CCNC(=O)c2ccc3c(c2)N(Cc2ccc(F)cc2)C(=O)/C(=C/c2ccccc2)S3)CC1` the IC50 [13] was > 20 µM (inactive), the IC50 [12] was 50 µM (inactive) and the AC50 [14] was 3.61 µM (active).

With `N#CCCn1c2ccccc2c2nc3ccccc3nc21` the EC50 [10] was > 50 µM (active).

In the case of `N#Cc1c(N)nc2c(c1-c1cccs1)CCCC2`, the AC50 [15] is reported as 6.16 µM (active).

With `Cc1nc2cc(C(=O)N3CCC4(CC3)OCCO4)ccc2n1-c1cccc(F)c1` the EC50 [10] was > 50 µM (active).

For `c1ccc(Oc2cc(-c3ccccc3)ncn2)cc1`, the IC50 [16] was 17.4 µM (active) and the AC50 [2] was “inconclusive”.

For `COc1ccc(Cl)cc1NC(=O)CN(C)CC(=O)Nc1ccccc1C(F)(F)F`, the EC50 [10] was > 50 µM (active).

For `COc1ccc(C2=NS(=O)(=O)N(C)C(C(=O)Nc3ccc(C)cc3)=C2)cc1`, the IC50 [8] was > 69.5 µM (inactive) and the IC50 [9] was 56.7 µM (inactive).

In the case of `Cn1c(SCC(=O)NN=C(S)Nc2ccccc2)nnc1-c1ccncc1`, the IC50 [7] is reported as > 50 µM (not active).

For `O=C(NCCc1ccncc1)Nc1ccc(Cl)c(Cl)c1`, the EC50 [10] was > 50 µM (active), the EC50 [17] was > 60 µM (not active) and the EC50 [18] was 1.34 µM (active).

With `Cc1nc2ncnn2c(N2CCN(C(=O)Cc3cccs3)CC2)c1C` the IC50 [19] was 0.107 µM (not active).

For `COc1ccc(NC(=O)C2CCN(S(=O)(=O)c3c(C)noc3/C=C/N(C)C)CC2)cc1`, the IC50 [8] was > 69.5 µM (inactive) and the IC50 [9] was 23.9 µM (inactive).

With `O=C(Cn1c(=O)c2ccccc2n(CC(=O)N2CCCCC2)c1=O)N1CCCCC1` the AC50 [15] was 6.5 µM (active).

With `O=C(CC(c1ccc(F)cc1)c1ccco1)N1CCOCC1` (stereo not given) the IC50 [7] was > 50 µM (not active).

In the case of `COc1nc(SC)nc2c1cnn2C1OC(C(O)CO)C(OC)C1O` (stereo not given), the GI50 [20] is reported as > 54.3 µM (inactive), the GI50 [21] is reported as 41.3 µM (inactive) and the GI50 [22] is reported as > 39.4 µM (inactive).

With `O=C(NN1C(=O)CS(=O)(=O)C1c1ccc(Cl)c(Cl)c1)c1ccncc1` (stereo not given) the GI50 [20] was > 100 µM (inactive), the GI50 [21] was 36.6 µM (inactive) and the GI50 [22] was 25.6 µM (inactive).

With `C[N+](C)([O-])CCOc1cc2c(c3ccccc13)-c1ccccc1C2=O` the GI50 [20] was 4.37 µM (inactive), the GI50 [21] was 8.79 µM (inactive) and the GI50 [22] was 6.19 µM (inactive).

In the case of `CN(C)CCNC(=O)c1cccc2ccc(-c3ccc(F)cc3)nc12`, the GI50 [20] is reported as 2.96 µM (inactive), the GI50 [21] is reported as 1.75 µM (inactive) and the GI50 [22] is reported as 0.61 µM (active).

With `CCC(/C=C/C1OC(=O)C=CC1C)=C\C(C)C/C=C/C(C)=C/C(C)C(=O)C(C)C(O)C(C)C/C(C)=C/C(=O)O` (stereo not given) the GI50 [20] was 1.56 µM (inactive) and the GI50 [22] was 0.914 µM (active).

In the case of `O=[N+]([O-])c1ccc2[nH]c3c(-c4ccccc4)nccc3c2c1`, the GI50 [20] is reported as 20.5 µM (inactive), the GI50 [21] is reported as 12.9 µM (inactive) and the GI50 [22] is reported as 10.9 µM (inactive).

In the case of `CN(C)CCCNC(=O)C[C@H]1CC[C@H]2[C@H](COc3ccc(NC(=O)NC4CCCC4)cc3C(=O)N2C)O1`, the AC50 [15] is reported as 0.509 µM (active).

For `CCNC(=O)C[C@H]1CC[C@H]2[C@H](COc3ccc(NS(C)(=O)=O)cc3C(=O)N2C)O1`, the AC50 [15] was 3.57 µM (active).

With `C/C=C/c1ccc([C@@H]2[C@@H](CO)N(c3nc(CC)cs3)[C@@H]2CNC(C)C)cc1` the AC50 [23] was 20.8 µM (active) and the AC50 [24] was 0.751 µM (active).

With `OC[C@H]1[C@@H](c2ccc(/C=C/c3ccccc3)cc2)[C@@H]2CN(Cc3ccncc3)CCCCN12` the AC50 [23] was 12.7 µM (active) and the AC50 [24] was 2.32 µM (active).

With `Cc1ccc(-c2ccc3c(c2)O[C@@H](CN(C)C(=O)Nc2ccc(C(F)(F)F)cc2)[C@H](C)CN([C@H](C)CO)S3(=O)=O)cc1` the AC50 [23] was > 39 µM (inactive) and the AC50 [24] was 5.26 µM (active).

With `Cc1ccc2c(c1)-c1c(ssc1=S)C(C)(C)N2C(=O)c1ccco1` the IC50 [25] was > 66 µM (inactive), the IC50 [26] was > 100 µM (inactive) and the IC50 [27] was > 66 µM (inactive).

Reference: ChEMBL document CHEMBL1201862, “PubChem BioAssay data set” (2004)
